Data on two molecules can be found in US7713952B2, “2-methylene-19,26,27-trinor-(20S)-1α-hydroxyvitamin D3 and its uses” (Wisconsin Alumni Research Foundation, priority 2004, dated 2010).

The test system of assay [1] is Human promyelocytic leukemia (HL60) cells. Put plainly: HL-60 cell differentiation (nitro blue tetrazolium reduction). The format is cell-based. The following applies: 4 days, FIG. 2. The procedure:
Radiolabeled and unlabeled ligands were added to 100 mcl of the diluted protein at a final ethanol concentration of ≦10%, mixed and incubated overnight on ice to reach binding equilibrium. The following day, 100 mcl of hydroxylapatite slurry (50%) was added to each tube and mixed at 10-minute intervals for 30 minutes. The hydroxylapaptite was collected by centrifugation and then washed three times with Tris-EDTA buffer (50 mM Tris, 1.5 mM EDTA, pH 7.4) containing 0.5% Titron X-100. After the final wash, the pellets were transferred to scintillation vials containing 4 ml of Biosafe II scintillation cocktail, mixed and placed in a scintillation counter. Total binding was determined from the tubes containing only radiolabeled ligand. • HL-60 Differentiation • Test Material Study Drugs
The study drugs were dissolved in ethanol and the concentrations determined using UV spectrophotometry. Serial dilutions were prepared so that a range of drug concentrations could be tested without changing the final concentration of ethanol (≦0.2%) present in the cell cultures. […]
HL60 cells were plated at 1.2×10^5 cells/ml. […] The percentage of differentiated cells was determined by counting a total of 200 cells and recording the number that contained intracellular black-blue formazan deposits. Verification of differentiation to monocytic cells was determined by measuring phagocytic activity (data not shown).

Assay [2] has as its system vitamin D-deficient rats. Nature of the assay: Bone calcium mobilization (serum calcium). In kind it is in vivo, rat. The following applies: rats on 0.02% Ca diet. Here is the method:
(§1) Intestinal Calcium Transport and Bone Calcium Mobilization
(§2) Male, weanling Sprague-Dawley rats were placed on Diet 11 (0.47% Ca) diet +AEK for one week followed by Diet 11 (0.02% Ca) +AEK for 3 weeks. The rats were then switched to a diet containing 0.47% Ca for one week followed by two weeks on a diet containing 0.02% Ca. Dose administration began during the last week on 0.02% calcium diet. Four consecutive ip doses were given approximately 24 hours apart. Twenty-four hours after the last dose, blood was collected from the severed neck and the concentration of serum calcium determined as a measure of bone calcium mobilization. The first 10 cm of the intestine was also collected for intestinal calcium transport analysis using the everted gut sac method.

Assay [3] has as its system vitamin D-deficient rats. Put plainly: Intestinal calcium transport (everted gut sac method). The format is in vivo, rat. The following applies: FIG. 6. The procedure:
as §1, §2

The subject of assay [4] is 24-hydroxylase (24Ohase) gene promoter in ROS 17/2.8 (bone) cells. Put plainly: In vitro transcription assay (24-hydroxylase promoter luciferase reporter). The format is cell-based. To be noted: ROS 17/2.8 cells, 24OHase-luciferase, 16 h; FIG. 3; read-out: EC50, transcriptional activity in bone cells. The procedure:
In Vitro Transcription Assay
Transcription activity was measured in ROS 17/2.8 (bone) cells that were stably transfected with a 24-hydroxylase (24Ohase) gene promoter upstream of a luciferase reporter gene (Arbour et al., 1998). Cells were given a range of doses. Sixteen hours after dosing the cells were harvested and luciferase activities were measured using a luminometer.
RLU=relative luciferase units.
(In general: A reporter such as luciferase makes a cellular process visible.)

Assay [5] deals with T1, full-length recombinant rat vitamin D receptor (Rattus norvegicus, UniProt P13053).
T1 construct: Full-length recombinant rat receptor was expressed in E. coli; histidine tag (C); made in house; host or cells: E. coli BL21 (DE3) Codon Plus RIL
T1 sequence (P13053 1-423): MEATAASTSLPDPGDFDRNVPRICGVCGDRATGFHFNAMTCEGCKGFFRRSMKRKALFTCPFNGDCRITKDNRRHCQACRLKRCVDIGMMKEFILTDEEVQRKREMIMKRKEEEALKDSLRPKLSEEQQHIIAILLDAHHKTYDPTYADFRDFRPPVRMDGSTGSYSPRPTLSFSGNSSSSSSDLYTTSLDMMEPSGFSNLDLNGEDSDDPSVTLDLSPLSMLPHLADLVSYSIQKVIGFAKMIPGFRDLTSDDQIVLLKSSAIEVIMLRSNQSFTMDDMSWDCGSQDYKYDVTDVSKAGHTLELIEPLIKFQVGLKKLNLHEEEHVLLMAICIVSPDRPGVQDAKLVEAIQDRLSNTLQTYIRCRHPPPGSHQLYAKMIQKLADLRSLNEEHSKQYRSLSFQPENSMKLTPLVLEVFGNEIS
Put plainly: Vitamin D receptor competitive binding with [3H]-1,25(OH)2D3. To be noted: full-length recombinant rat VDR; FIG. 1; read-out: Ki, competition with [3H]-1,25(OH)2D3 for binding to vitamin D receptor. The procedure: Full-length recombinant rat receptor was expressed in E. coli BL21 (DE3) Codon Plus RIL cells and purified to homogeneity using two different column chromatography systems. The first system was a nickel affinity resin that utilizes the C-terminal histidine tag on this protein. The protein that was eluted from this resin was further purified using ion exchange chromatography (S-Sepharose Fast Flow). Aliquots of the purified protein were quick frozen in liquid nitrogen and stored at −80° C. until use. For use in binding assays, the protein was diluted in TEDK50 (50 mM Tris, 1.5 mM EDTA, pH7.4, 5 mM DTT, 150 mM KCl) with 0.1% Chaps detergent. The receptor protein and ligand concentration were optimized such that no more than 20% of the added radiolabeled ligand was bound to the receptor.
Radiolabeled and unlabeled ligands were added to 100 mcl of the diluted protein at a final ethanol concentration of ≦10%, mixed and incubated overnight on ice to reach binding equilibrium. The following day, 100 mcl of hydroxylapatite slurry (50%) was added to each tube and mixed at 10-minute intervals for 30 minutes. The hydroxylapaptite was collected by centrifugation and then washed three times with Tris-EDTA buffer (50 mM Tris, 1.5 mM EDTA, pH 7.4) containing 0.5% Titron X-100. […]

The mark [6] stands for this setting: 87 or 780 pmol/day ip for 4 days.

The EC50 is the concentration at which the effect is half-maximal. On to `C=C1/C(=C\C=C2/CCC[C@]3(C)[C@@H]([C@H](C)CCCC(C)(C)O)CC[C@@H]23)C[C@@H](O)C[C@@H]1O` [1,25(OH)2D3, 1α,25-dihydroxyvitamin D3, reference compound], for which the EC50 in assay [1] was 2.9 nM. Also, the “serum calcium levels (bone calcium mobilization)” value in the assay on vitamin D-deficient rats [2] (all dosages, FIG. 4) is given as “increased serum calcium levels at all dosages”. In addition, in the assay on vitamin D-deficient rats [3] (setting [6]), the intestinal calcium transport result is recorded as “promotes a significant increase”.

Broadly, the Ki is the equilibrium dissociation constant of an inhibitor or competing ligand from its target. As for `C=C1[C@H](O)CC(=C/C=C2\CCC[C@@]3(C)C2CCC3[C@@H](C)CCCC)C[C@H]1O` (stereo partly drawn) [OM, 2-methylene-19,26,27-trinor-(20S)-1α-hydroxyvitamin D3], the EC50 in assay [4] came out at 3.2 nM; in assay [1] (Homo sapiens, HL-60, 96 h), 4.7 nM. Besides, the “mobilization of bone calcium (serum calcium)” value in the assay with vitamin D-deficient rats [2] (87 pmol/day ip for 4 consecutive days) is listed as “did not result in mobilization of bone calcium”; in the assay on vitamin D-deficient rats [2] (780 pmol/day and 7020 pmol/day ip for 4 days), “without any substantial effect”. Further, the intestinal calcium transport result with vitamin D-deficient rats [3] (7020 pmol/day ip for 4 days) is recorded as “significant intestinal calcium transport activity was recorded”; in the assay with vitamin D-deficient rats [3] (setting [6]), “does not promote intestinal calcium transport”. Moreover, the Ki in assay [5] was determined as 0.077 nM.
